Reference: patent publication EP0882029B1, “HETEROCYCLIC DERIVATIVES AS ANTIDIABETIC AND ANTIOBESITY AGENTS” (MERCK & CO., INC., priority 1996, dated 1997)

Assays:
Human PPARγ2 = target: T1, Human PPARγ2 (Homo sapiens, UniProt P37231); test: [3H]AD-5075 displacement (receptor binding) assay; details: gst-fusion receptor, 10 nM [3H2]AD-5075, ~16 h at 4 °C
T1 construct: The full length human cDNA for PPARγ2 and PPARδ were subcloned into the PGEX-2T and PGEX-KT, respectively, expression vector; made in house; host or cells: E. coli (pGEX-2T vector, Pharmacia)
T1 sequence (P37231 1-505): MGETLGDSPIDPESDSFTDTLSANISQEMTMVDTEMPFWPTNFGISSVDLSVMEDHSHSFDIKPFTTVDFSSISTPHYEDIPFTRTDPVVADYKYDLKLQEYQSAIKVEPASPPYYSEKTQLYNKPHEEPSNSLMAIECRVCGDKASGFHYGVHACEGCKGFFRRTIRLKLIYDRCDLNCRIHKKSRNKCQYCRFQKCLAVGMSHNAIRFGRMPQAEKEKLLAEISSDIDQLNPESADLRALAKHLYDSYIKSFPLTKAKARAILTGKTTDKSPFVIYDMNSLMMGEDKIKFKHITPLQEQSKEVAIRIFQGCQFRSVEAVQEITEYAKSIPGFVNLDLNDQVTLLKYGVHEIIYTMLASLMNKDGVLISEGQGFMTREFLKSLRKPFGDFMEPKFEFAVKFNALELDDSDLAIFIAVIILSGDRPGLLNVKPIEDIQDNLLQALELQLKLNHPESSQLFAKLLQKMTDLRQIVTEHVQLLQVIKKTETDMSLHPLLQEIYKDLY
Method: Human PPARγ2 and PPARδ, independently, were prepared as gst-fusion proteins in E. coli. The full length human cDNA for PPARγ2 and PPARδ were subcloned into the PGEX-2T and PGEX-KT, respectively, expression vector (Pharmacia). E. coli containing the plasmid were grown, induced, and then harvested by centrifugation. The resuspended pellet was broken in a French press and debris was removed by centrifugation at 12,000Xg. Receptors were purified from the supernatant by affinity chromatography on glutathione sepharose. After application to the column, and 1 wash, receptor was eluted with glutathione. Glycerol was added to stabilize the receptor and aliquots were frozen at -80 °C for later use.
For each assay, an aliquot of receptor (1:1000-1:3000 dilution) was incubated in TEGM (10 mM Tris, pH 7.2, 1 mM EDTA, 10% glycerol, 7 µl/100 ml β-mercaptoethanol, 10 mM Na molybdate, 1 mM dithiothreitol, 5 µg/ml aprotinin, 2 µg/ml leupeptin, 2 µg/ml benzamide and 0.5 mM PMSF) containing 5-10% COS-1 cell cytoplasmic lysate and 10 nM labeled thiazolidinedione ([^3H2]AD-5075, 21 Ci/mmole), ± test compound compound, [^3H2]Example 11, 17 Ci/mmole), ± test compound, respectively. Assays were incubated for ∼16 h at 4 °C in a final volume of 300 µl. […] After centrifugation at 3000 rpm for 10 min at 4 °C, 200 µl of the supernatant fraction was counted in a liquid scintillation counter. […]

Human PPARδ = target: T2, Human PPARδ (Homo sapiens, UniProt Q03181); test: [3H2]Example 11 displacement (receptor binding) assay; details: gst-fusion receptor, [3H2]Example 11, ~16 h at 4 °C
T2 construct: The full length human cDNA for PPARγ2 and PPARδ were subcloned into the PGEX-2T and PGEX-KT, respectively, expression vector; made in house; host or cells: E. coli (pGEX-KT vector, Pharmacia)
T2 sequence (Q03181 1-441): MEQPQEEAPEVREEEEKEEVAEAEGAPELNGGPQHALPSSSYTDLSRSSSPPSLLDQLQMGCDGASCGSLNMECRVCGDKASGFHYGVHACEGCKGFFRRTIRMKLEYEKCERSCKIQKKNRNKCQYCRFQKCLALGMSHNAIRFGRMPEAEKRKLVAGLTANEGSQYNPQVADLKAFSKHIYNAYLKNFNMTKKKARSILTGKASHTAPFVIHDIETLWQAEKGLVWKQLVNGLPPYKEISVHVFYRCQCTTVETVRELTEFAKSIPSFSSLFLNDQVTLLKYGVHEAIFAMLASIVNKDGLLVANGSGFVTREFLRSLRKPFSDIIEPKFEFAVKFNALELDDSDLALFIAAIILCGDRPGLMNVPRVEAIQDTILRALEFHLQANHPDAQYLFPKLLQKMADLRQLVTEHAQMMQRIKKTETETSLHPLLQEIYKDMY
Method: The hPPARδ binding assay comprises the steps of: • (a) preparing multiple test samples by incubating separate aliquots of the receptor hPPARδ with a test compound in TEGM containing 5-10% COS-1 cell cytoplasmic lysate and 2.5 nM labeled ([^3H2]Compound D, 17 Ci/mmole) for a minimum of 12 hours, and preferably for about 16 hours, at 4 °C, wherein the concentration of the test compound in each test sample is different, and preparing a control sample by incubating a further separate aliquot of the receptor hPPARδ under the same conditions but without the test compound; then • (b) removing unbound ligand by adding dextran/gelatin-coated charcoal to each sample while maintaining the samples at 4 °C and allowing at least 10 minutes to pass, then • (c) subjecting each of the test samples and the control sample from step (b) to centrifugation at 4 °C until the charcoal is pelleted; then • (d) counting a portion of the supernatant fraction of each of the test samples and the control sample from step (c) in a liquid scintillation counter and analyzing the results to determine the IC50 of the test compound.
Human PPARγ2 and PPARδ, independently, were prepared as gst-fusion proteins in E. coli. The full length human cDNA for PPARγ2 and PPARδ were subcloned into the PGEX-2T and PGEX-KT, respectively, expression vector (Pharmacia). […]

Compound | Kd (Human PPARγ2) [nM] | Kd (Human PPARδ) [nM]
Cc1oc(-c2ccccc2)nc1C(O)COc1ccc(CC2SC(=O)NC2=O)cc1 (centres unmarked) [AD-5075] | 1 | 
CCCc1c(OCCC[S+]([O-])c2ccc(CC(=O)OC)cc2Cl)ccc2c(CC)noc12 (centres unmarked) [Example 11, Methyl 3-chloro-4-(3-(3-ethyl-7-propyl-6-benz-[4,5]-isoxazoloxy)-propylthio)phenylacetate S-oxide] |  | 1
